{
  "source": "patent US10071967B2",
  "about": "“N-cycloalkyl-N-{[2-(1-substitutedcycloalkyl)phenyl]methylene}-(thio)carboxamide derivatives” (BAYER CROPSCIENCE AKTIENGESELLSCHAFT, priority 2013, dated 2018)",
  "key": {"[1]": {"experiment": "log P by HPLC on a reversed-phase column (C 18), EEC Directive 79/831 Annex V.A8", "format": "physicochemical", "details": "0.1% aqueous formic acid and acetonitrile", "description": "In table 1, the log P values were determined in accordance with EEC Directive 79/831 Annex V.A8 by HPLC (High Performance Liquid Chromatography) on a reversed-phase column (C 18), using the method described below: Temperature: 40° C.; Mobile phases: 0.1% aqueous formic acid and acetonitrile; linear gradient from 10% acetonitrile to 90% acetonitrile. Calibration was carried out using unbranched alkan-2-ones (comprising 3 to 16 carbon atoms) with known log P values (determination of the log P values by the retention times using linear interpolation between two successive alkanones). lambda-max-values were determined using UV-spectra from 200 nm to 400 nm and the peak values of the chromatographic signals."}, "Uromyces appendiculatus": {"system": "Uromyces appendiculatus", "experiment": "In vivo preventive test on Uromyces appendiculatus (bean rust)", "details": "for Efficacy: Table B1, dose 10 ppm", "description": "Example B: In Vivo Preventive Test on Uromyces appendiculatus (Bean Rust)\nSolvent: 5% by volume of Dimethyl sulfoxide • 10% by volume of Acetone\nEmulsifier: […] of Tween® 80 per mg of active ingredient\n(§1) The active ingredients are made soluble and homogenized in a mixture of Dimethyl sulfoxide/Acetone/Tween® 80 and then diluted in water to the desired concentration.\nThe young plants of bean are treated by spraying the active ingredient prepared as described above.\nControl plants are treated only with an aqueous solution of Acetone/Dimethyl sulfoxide/Tween® 80.\nAfter 24 hours, the plants are contaminated by spraying the leaves with an aqueous suspension of Uromyces appendiculatus spores. The contaminated bean plants are incubated for 24 hours at 20° C. and at 100% relative humidity and then for 10 days at 20° C. and at 70-80% relative humidity.\n(§2) The test is evaluated 11 days after the inoculation. 0% means an efficacy which corresponds to that of the control plants while an efficacy of 100% means that no disease is observed."}, "Phakopsora pachyrhizi": {"system": "Phakopsora pachyrhizi", "experiment": "In vivo preventive test on Phakopsora pachyrhizi (soybean rust)", "details": "for protection: dose of ppm of active ingredient (number not given), comparison with WO-2010/130767, text", "description": "Example C: In Vivo Preventive Test on Phakopsora pachyrhizi (Soybean Rust)\nSolvent: 24.5 parts by weight of acetone • 24.5 parts by weight of N,N-dimethylacetamide\nEmulsifier: 1 part by weight of alkylaryl polyglycol ether\nTo produce a suitable preparation of active compound, 1 part by weight of active compound is mixed with the stated amounts of solvent and emulsifier, and the concentrate is diluted with water to the desired concentration.\nTo test for preventive activity, young plants are sprayed with the preparation of active compound at the stated rate of application. After the spray coating has dried on, the plants are inoculated with an aqueous spore suspension of the causal agent of soybean rust (Phakopsora pachyrhizi) and stay for 24 h without light in an incubation cabinet at approximately 24° C. and a relative atmospheric humidity of 95%.\nThe plants remain in the incubation cabinet at approximately 24° C. and a relative atmospheric humidity of approximately 80% and a day/night interval of 12 h. The test is evaluated 7 days after the inoculation. 0% means an efficacy which corresponds to that of the untreated control, while an efficacy of 100% means that no disease is observed."}, "Puccinia recondita": {"system": "Puccinia recondita", "experiment": "In vivo preventive test on Puccinia recondita (brown rust on wheat)", "details": "for Efficacy: Table A1, dose 100 ppm, examples from WO-2012/052490 formulated in DMF with 2% of alkylarylpolyglycolether; for protection: dose of 100 ppm of active ingredient, comparison with WO-2012/052490", "description": "Example A: In Vivo Preventive Test on Puccinia recondita (Brown Rust on Wheat) […]\nEmulsifier: 1 μL of Tween® 80 per mg of active ingredient\nas §1\nThe young plants of wheat are treated by spraying the active ingredient prepared as described above. Control plants are treated only with an aqueous solution of Acetone/Dimethyl sulfoxide/Tween® 80. After 24 hours, the plants are contaminated by spraying the leaves with an aqueous suspension of Puccinia recondita spores. The contaminated wheat plants are incubated for 24 hours at 20° C. and at 100% relative humidity and then for 10 days at 20° C. and at 70-80% relative humidity.\nas §2"}, "[2]": {"details": "HPLC, reversed-phase column (C 18), 40° C., linear gradient 10% to 90% acetonitrile"}},
  "data": [
    {"smiles": "Cc1ccc(C2(C)CC2)c(CN(C(=O)c2cn(C)nc2C(F)F)C2CC2)c1", "note": "[I.033]", "values": [
      {"measurement": "logP", "setting": "[1]; [2]", "result": 3.74},
      {"measurement": "Efficacy", "setting": "Uromyces appendiculatus", "result": 100, "unit": "%"}
    ]},
    {"smiles": "CCCC1(c2ccc(C)cc2CN(C(=O)c2c(C)nn(C)c2F)C2CC2)CC1", "note": "[I.113]", "values": [
      {"measurement": "logP", "setting": "[1]; [2]", "result": 4.61},
      {"measurement": "Efficacy", "setting": "Phakopsora pachyrhizi; Table C1, dose 10 ppm", "result": 85, "unit": "%"}
    ]},
    {"smiles": "Cn1nc(C(F)F)c(C(=O)N(Cc2cc(Cl)ccc2C2CC2)C2CC2)c1F", "note": "[41 from WO-2010/130767, N-(5-chloro-2-cyclopropylbenzyl)-N-cyclopropyl-3-(difluoromethyl)-5-fluoro-1-methyl-1H-pyrazole-4-carboxamide, reference compound]", "values": [
      {"measurement": "protection", "setting": "Phakopsora pachyrhizi", "result": "no protection"}
    ]},
    {"smiles": "Cc1nn(C)c(F)c1C(=O)N(Cc1ccccc1C1CCCCC1)C1CC1", "note": "[399 from WO-2007/087906, N-(2-cyclohexylbenzyl)-N-cyclopropyl-5-fluoro-1,3-dimethyl-1H-pyrazole-4-carboxamide, reference compound]", "values": [
      {"measurement": "Efficacy", "setting": "Uromyces appendiculatus", "result": 0, "unit": "%"},
      {"measurement": "protection", "setting": "Uromyces appendiculatus; dose of ppm of active ingredient (number not given), comparison with WO-2007/087906, text", "result": "no protection"}
    ]},
    {"smiles": "Cn1nc(C(F)F)c(C(=O)NCc2ccccc2C2CC2)c1Cl", "note": "[66 from WO-2012/052490, 5-chloro-N-(2-cyclo-propylbenzyl)-3-(difluoromethyl)-1-methyl-1H-pyrazole-4-carboxamide]", "values": [
      {"measurement": "Efficacy", "setting": "Puccinia recondita", "result": 0, "unit": "%"},
      {"measurement": "protection", "setting": "Puccinia recondita", "result": "no protection"}
    ]},
    {"smiles": "CCC1(c2ccccc2CN(C(=O)c2cn(C)nc2C(F)F)C2CC2)CC1", "note": "[I.067]", "values": [
      {"measurement": "Efficacy", "setting": "Puccinia recondita", "result": 98, "unit": "%"},
      {"measurement": "protection", "setting": "Puccinia recondita", "result": "at least 98%"}
    ]},
    {"smiles": "Cn1cc(C(=O)N(Cc2cc(Cl)ccc2C2(C)CC2)C2CC2)c(C(F)F)n1", "note": "[I.029, N-[5-chloro-2-(1-methylcyclopropyl)benzyl]-N-cyclopropyl-3-(difluoromethyl)-1-methyl-1H-pyrazole-4-carboxamide]", "values": [
      {"measurement": "Efficacy", "setting": "Uromyces appendiculatus", "result": 98, "unit": "%"}
    ]},
    {"smiles": "Cn1nc(C(F)F)c(C(=O)N(Cc2ccccc2C2CC2)C2CC2)c1F", "note": "[47 from WO-2010/130767, N-cyclopropyl-N-(2-cyclopropylbenzyl)-3-(difluoromethyl)-5-fluoro-1-methyl-1H-pyrazole-4-carboxamide, reference compound]", "values": [
      {"measurement": "Efficacy", "setting": "Phakopsora pachyrhizi; Table C1, dose 10 ppm", "result": 0, "unit": "%"}
    ]},
    {"smiles": "Cc1ccc(C2(C)CC2)c(CN(C(=O)c2c(C)nn(C)c2F)C2CC2)c1", "note": "[I.040]", "values": [
      {"measurement": "Efficacy", "setting": "Phakopsora pachyrhizi; Table C1, dose 10 ppm", "result": 99, "unit": "%"}
    ]},
    {"smiles": "Cn1nc(C(F)F)c(C(=O)NCc2ccccc2C2CC2)c1F", "note": "[65 from WO-2012/052490, N-(2-cyclopropylbenzyl)-3-(difluoromethyl)-5-fluoro-1-methyl-1H-pyrazole-4-carboxamide]", "values": [
      {"measurement": "Efficacy", "setting": "Puccinia recondita", "result": 0, "unit": "%"},
      {"measurement": "protection", "setting": "Puccinia recondita", "result": "no protection"}
    ]},
    {"smiles": "CCC1(c2ccc(Cl)cc2CN(C(=O)c2c(C)nn(C)c2F)C2CC2)CC1", "note": "[I.087]", "values": [
      {"measurement": "Efficacy", "setting": "Phakopsora pachyrhizi; Table C2, dose 10 ppm", "result": 79, "unit": "%"},
      {"measurement": "protection", "setting": "Phakopsora pachyrhizi", "result": "at least 70%"}
    ]},
    {"smiles": "Cn1nc(C(F)F)c(C(=O)N(Cc2cc(F)ccc2C2CC2)C2CC2)c1F", "note": "[123 from WO-2010/130767, N-cyclopropyl-N-(2-cyclopropyl-5-fluorobenzyl)-3-(difluoromethyl)-5-fluoro-1-methyl-1H-pyrazole-4-carboxamide, reference compound]", "values": [
      {"measurement": "Efficacy", "setting": "Phakopsora pachyrhizi; Table C1, dose 10 ppm", "result": "0/23"}
    ]},
    {"smiles": "Cc1ccc(C2(C(C)C)CC2)c(CN(C(=O)c2cn(C)nc2C)C2CC2)c1", "note": "[Example 1.124]", "values": [
      {"measurement": "logP", "setting": "[1]; [2]", "result": 3.96}
    ]},
    {"smiles": "Cn1cc(C(=O)N(Cc2cc(Br)ccc2C2(C)CC2)C2CC2)c(C(F)F)n1", "note": "[Example 1.024]", "values": [
      {"measurement": "logP", "setting": "[1]; [2]", "result": 3.94}
    ]},
    {"smiles": "Cn1cc(C(=O)N(Cc2cc(F)ccc2C2(C)CC2)C2CC2)c(C(F)F)n1", "note": "[Example 1.032]", "values": [
      {"measurement": "logP", "setting": "[1]; [2]", "result": 3.51}
    ]},
    {"smiles": "Cn1cc(C(=O)N(Cc2cc(F)ccc2C2(C)CC2(Cl)Cl)C2CC2)c(C(F)F)n1", "note": "(stereo not drawn) [Example 1.153]", "values": [
      {"measurement": "logP", "setting": "[1]; HPLC reversed-phase C 18, 40° C., gradient 10% to 90% acetonitrile", "result": 3.68}
    ]},
    {"smiles": "Cc1ccc(C2(C3CC3)CC2)c(CN(C(=O)c2cn(C)nc2C(F)F)C2CC2)c1", "note": "[Example 1.107]", "values": [
      {"measurement": "logP", "setting": "[1]; [2]", "result": 4.11}
    ]},
    {"smiles": "Cc1ccc(C2(C)CC2)c(CN(C(=O)c2oc(C)nc2C(F)F)C2CC2)c1", "note": "[Example 1.046]", "values": [
      {"measurement": "logP", "setting": "[1]; [2]", "result": 4.39}
    ]},
    {"smiles": "Cn1cc(C(=O)N(Cc2cccc(F)c2C2(C)CC2)C2CC2)c(C(F)F)n1", "note": "[Example 1.003]", "values": [
      {"measurement": "logP", "setting": "[1]; [2]", "result": 3.46}
    ]},
    {"smiles": "Cn1cc(C(=O)N(Cc2ccc(F)cc2C2(C(F)F)CC2)C2CC2)c(C(F)F)n1", "note": "[Example 1.133]", "values": [
      {"measurement": "logP", "setting": "[1]; [2]", "result": 3.09}
    ]},
    {"smiles": "Cc1ccc(C2(C(C)C)CC2)c(CN(C(=O)c2c(C)nn(C)c2F)C2CC2)c1", "note": "[Example 1.122]", "values": [
      {"measurement": "logP", "setting": "[1]; [2]", "result": 4.54}
    ]},
    {"smiles": "Cn1cc(C(=S)N(Cc2cccc3c2C2(CCC3)CC2)C2CC2)c(C(F)F)n1", "note": "[Ia.03]", "values": [
      {"measurement": "logP", "setting": "[1]; Table 2, compounds of formula (I), HPLC C 18, 40° C.", "result": 4.37}
    ]},
    {"smiles": "Cc1c(C(=O)N(Cc2cc(Cl)ccc2C2(C)CC2)C2CC2)c(C(F)F)nn1C", "note": "[Example 1.030]", "values": [
      {"measurement": "logP", "setting": "[1]; [2]", "result": 4.06}
    ]},
    {"smiles": "C#CC1(c2ccc(C)cc2CN(C(=S)c2c(C)nn(C)c2F)C2CC2)CC1", "note": "[Example 1.066]", "values": [
      {"measurement": "logP", "setting": "[1]; [2]", "result": 4.54}
    ]},
    {"smiles": "Cn1nc(C(=S)N(Cc2ccc(Cl)cc2C2(C)CC2)C2CC2)c(C(F)F)n1", "note": "[Example 1.011]", "values": [
      {"measurement": "logP", "setting": "[1]; [2]", "result": 5.11}
    ]},
    {"smiles": "Cc1ccc(C2(C)CC2)c(CN(C(=O)c2c(C(F)F)nn(C)c2C(F)F)C2CC2)c1", "note": "[Example 1.035]", "values": [
      {"measurement": "logP", "setting": "[1]; [2]", "result": 4.36}
    ]}
  ]
}
